Source: patent publication US9108930B2, “N1- and N2-carbamoyl-1,2,3-triazole serine hydrolase inhibitors and methods” (The Scripps Research Institute, priority 2011, dated 2015)

Biological target: T1, APEH recombinantly expressed in HEK-293 cells (Mus musculus, UniProt Q8R146)
T1 construct: full-length cDNAs encoding mouse serine hydrolases were either transfected directly; host or cells: HEK-293
Assay: APEH exopeptidase assay with synthetic N-acetylated hexapeptides (LC-MS)
Type: biochemical
Settings: 3 nM, 30 min pre-treatment
Description: Enzyme assays were performed with LC-MS by monitoring the release of the N-terminal N-acetyl amino acid. APEH was transiently overexpressed in HEK-293 cells and whole cell lysates were treated with DMSO or 3 nM AA74-1 for 30 minutes and adjusted to a final protein concentration of about 0.3 mg/mL with PBS buffer. For each reaction, about 200 μM of hexapeptide were incubated with lysates for 10 h at 37° C. before quenching with 0.8 mL MeOH. Samples were centrifuged for 10 minutes at 10,000×g at 4° C. and the supernatant was dried down under vacuum. For LC-MS analysis samples were injected into an Agilent 1100 LC-MSD SL instrument applying the following gradient: Buffer A (MeCN) to Buffer B (95:5 H2O/MeCN+50 mM NH4OAc+0.2% NH4OH). Data represent the average±s.d. for three experiments.
Enzyme assays were performed with LC-MS by monitoring the formation of free N-acetyl amino acid. Mouse APEH was recombinantly expressed in HEK-293 cells and whole cell lysates of overexpressed APEH (or mock) were pre-treated with DMSO or 3 nM AA74-1 for 30 minutes and adjusted to a final protein concentration of 0.3 mg/mL with PBS buffer. For each reaction 200 μM of hexapeptide substrate were incubated with lysates in 200 μL total reaction volume. Reactions were incubated for 10 h at 37° C. before quenching with 0.8 mL MeOH. […]

T1 sequence (Q8R146 whole entry): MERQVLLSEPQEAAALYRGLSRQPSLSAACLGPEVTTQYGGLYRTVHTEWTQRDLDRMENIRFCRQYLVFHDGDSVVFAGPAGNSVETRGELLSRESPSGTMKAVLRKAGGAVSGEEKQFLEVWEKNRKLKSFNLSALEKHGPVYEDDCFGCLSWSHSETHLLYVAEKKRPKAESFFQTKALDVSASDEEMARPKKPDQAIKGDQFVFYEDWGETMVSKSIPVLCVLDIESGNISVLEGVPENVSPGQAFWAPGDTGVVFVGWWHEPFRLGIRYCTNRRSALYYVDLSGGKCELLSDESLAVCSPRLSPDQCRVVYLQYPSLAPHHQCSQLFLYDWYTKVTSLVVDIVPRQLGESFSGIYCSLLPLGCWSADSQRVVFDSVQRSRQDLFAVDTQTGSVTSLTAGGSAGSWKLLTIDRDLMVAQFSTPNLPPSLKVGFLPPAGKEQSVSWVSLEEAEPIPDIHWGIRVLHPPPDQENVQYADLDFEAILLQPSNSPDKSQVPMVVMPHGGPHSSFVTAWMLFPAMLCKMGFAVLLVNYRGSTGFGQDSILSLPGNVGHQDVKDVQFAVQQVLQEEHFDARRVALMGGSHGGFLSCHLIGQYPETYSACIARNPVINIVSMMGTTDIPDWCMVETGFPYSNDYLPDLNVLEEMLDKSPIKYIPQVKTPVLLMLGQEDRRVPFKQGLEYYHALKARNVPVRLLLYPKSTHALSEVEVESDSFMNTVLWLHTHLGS

SMILES: CC(C)CC(O)(CC(C)C)c1cnn(C(=O)N2CCCC2)n1 [AA74-1]
- cleavage of N-terminally acetylated residue by APEH-transfected cells: blocked
